≈ marks a conversion by molar mass, not a printed value. Calls of active or inactive are those of the source. The calls are words filed in the database; no cut-off is given here.
Columns and labels:
[1] = test system: Candida albicans; assay: Antifungal activity against Candida albicans; format: functional, organism-based
[2] = test system: Staphylococcus aureus; assay: Antibacterial activity against Staphylococcus aureus; format: functional, organism-based

Row | SMILES | IC50 [1] [µg/mL] | IC50 [2] | MIC [2]
1 | Clc1ccc(COC(Cn2ccnc2)c2ccc(Cl)cc2Cl)c(Cl)c1.O=[N+]([O-])O (centres undefined) [MICONAZOLE NITRATE] | < 1.2 | – | –
2 | CCOc1ccc(C(=C2C=CC(=O)C=C2)c2c(-c3ccc(O)cc3)ccc(CO)c2C#Cc2ccc(O)cc2)cc1 [SELAGINELLIN D] | 5.3 (≈ 9.8 µM) | Not Active | inactive
